Data from publication PMC7692551, “Characterization of a Robust and pH-Stable Tannase from Mangrove-Derived Yeast Rhodosporidium diobovatum Q95” (Marine Drugs, 2020).

System: T1, TanRd
T1 construct: recombinant secreted from Yarrowia lipolytica, codon-optimised, XPR2 signal peptide, His-tag; ORF 1719 bp, 572 aa, predicted native signal peptide 1-19
Test: gallate ester hydrolysis, gallic acid release
Format: biochemical, Rhodotorula diobovata
Details: kinetic assay conditions not stated
Excerpt: gallate ester hydrolysis, gallic acid release on TanRd

Row | Km [µM] | SMILES
1 | 2310 | COC(=O)c1cc(O)c(O)c(O)c1 [MG, methyl gallate]
2 | 1490 | CCCOC(=O)c1cc(O)c(O)c(O)c1 [PG, propyl gallate]

Further lines, the molecule ahead of its results:

Row | SMILES | Km [µM]
3 | O=C(O[C@H]1Cc2c(O)cc(O)cc2O[C@@H]1c1ccc(O)c(O)c1)c1cc(O)c(O)c(O)c1 [CG, catechin gallate] | 1670
4 | O=C(O[C@@H]1Cc2c(O)cc(O)cc2O[C@@H]1c1ccc(O)c(O)c1)c1cc(O)c(O)c(O)c1 [ECG, epicatechin gallate] | 1650
5 | O=C(O[C@@H]1Cc2c(O)cc(O)cc2O[C@@H]1c1cc(O)c(O)c(O)c1)c1cc(O)c(O)c(O)c1 [EGCG, epigallocatechin gallate] | 2190
